Reference: article PMC4684281, “Antitumor Effects and Mechanism of Novel Emodin Rhamnoside Derivatives against Human Cancer Cells In Vitro” (PLoS ONE, 2015)
Where “and” joins values, the source holds several entries; their conditions need not be identical. Equal entries are not always repeated. Where two headings read alike, the source gives them in different places.

Assays:
A549 cells = assay: MTT cell viability assay, A549; assay type: cell-based, Human; details: for IC50: A549
Method: (§1) The viability of cancer cells was evaluated by MTT assay. Briefly, cells were inoculated in 96-well culture plates at the density of 1×10^4/well with complete medium containing 10% fetal calf serum in a final volume of 0.2 mL. Cells were incubated at 37°C for at least 24 hours to allow optimal attachment. When the cells reached 60% confluence, they were treated with Cisplatin, HCPT and emodin rhamnopyranosides derivatives in various concentrations, and incubated in a humidity-controlled 5%CO2 incubator at 37°C for 72 hours. Medium were exchanged once every 24 hours. Cell control group and blank group were set up in the same manner, with each group having six parallel wells. Cell survival was assessed by directly adding 22 μL of 5mg/mL MTT to 0.2 mL medium. After three hours, the formazan precipitate was dissolved in 200μL isopropanol per well, and completely mixed under room temperature. Afterwards, the optical density of each well was detected at 570 nm wavelength by iMark microplate reader (Bio-rad,USA). This experiment was repeated at least three times.

[1] = tested on: Cyto C gene expression of HepG2 cells; assay: RT-qPCR gene expression, Cytochrome C; assay type: cell-based, Human; details: 48 hours, control 1.030±0.280
Method: HepG2 cells were inoculated in 6-well culture plates at a density of 3×10^5 cells/well, and allowed to attach at 37°C for 24 hours. Then cells were treated with specific concentrations of EM-d-Rha and incubated in a humidified incubator supplied with 5% CO2 at 37°C for 48 hours. Medium were changed once every 24 hours. Afterwards, mRNA was extracted from every group using E.Z.N.A.^TM Total RNA Kit II according to the manufacturer’s instructions. The extracted mRNA was dissolved in 20 μL ddH2O (Qiagen) containing diethyl pyrocarbonate (DEPC). The concentration of mRNA was quantified with a NanoDrop ND-100 device (Thermo Fisher Scientific). cDNA was synthesized using 3μg of the extracted mRNA from each sample with PCR system (BIO-RAD,USA). The cDNA synthesis reaction was prepared according to the manufacturer’s instructions by mixing 3μg mRNA, 4.0μL 5× MMLV buffer, 3 μL oligodT18, 0.5μL 10 mM dNTP solution, 0.8μL RNase inhibitor, 3.7μL MMLV Rtase, and 6.0μL DEPC ddH2O in PCR tubes. The reaction condition was 5min at 70°C, 60 min at 42°C and 10min at 4°C. The products were used for subsequent RT-qPCR analysis. The level of mRNA expression was measured by RT-qPCR using a CFX96^TM C1000 Real-Time PCR System (BIO-RAD, USA).The primers were designed using idt.dna software system (http //www.idtdna.com). The specific primers were: Cyto C: 5′-[…]-3′ (forward), 5′- […] -3′ (reverse); Caspase 3: 5′- CCTACAGCCCATTTC TCCATAC-3′ (forward), 5′-[…]-′ (reverse); β-actin: 5′-[…]-3′ (forward), 5′-[…]-3′ (reverse). The product sizes of Cyto C, Caspase 3 and β-actin were 91bp, 125bp and 107bp, respectively. The PCR reaction was performed in a final volume of 20μL using an optical 96-well tray. The reaction mixture consisted of 10μL of SYBR I green Mix/ GoTaq®qPCR
Master Mix (Promega), 0.3μL of each primer (10μM), and 1.0 μL cDNA template. PCR cycling condition was one cycle of 5min at 95°C, 39 cycles and each of which was consisted of 15 seconds at 95°C, 15 seconds at 62°C and 30 seconds at 72°C, with final extension at 60°C for 5 Seconds. The thermal melt parameter was investigated to assess the homogeneity of PCR. Each sample was analyzed in quadruplicate and mean was used for further analysis. The mRNA expression levels of each sample were quantified by measuring the threshold cycle (CT) values of genes. The relative values of the target gene expression were calculated according to CT values of the target genes and the reference gene (β-actin) by applying Livak and Schmittgen method. That is, it equals to 2^-Δ ΔCT, ΔCT equals the mean of Ct for target gene minus the mean of Ct for β-actin gene, and ΔΔCT equals ΔCT of the treated group minus ΔCT of the control group.

OVCAR-3 cells = assay: Flow cytometry apoptosis analysis (Annexin V/7-AAD), OVCAR-3; assay type: cell-based, Human; details: 48h (Fig 8 legend: 72h); for Late apoptosis: control 4.87±1.42; for Early apoptosis: control 13.01±5.81; for Living cell: control 81.36±8.14
MCF-7 cells = assay: MTT cell viability assay, MCF-7; assay type: cell-based; details: Homo sapiens, MCF7
Method: as §1

HepG2 cells = assay: Cell cycle analysis (PI staining); assay type: cell-based, Human; details: 48h; for Percentage of cell cycle distribution, G2/M: control 9.68±3.46%; for Percentage of cell cycle distribution, G0/G1: control 67.48±3.94%
Method: HepG2 cells in logarithmic growth phase were inoculated in 10cm culture plates at density of 5×10^5 cells and incubated overnight and allowed to attach. After being exposed to EM-d-Rha at specific concentrations for 48h, cells were harvested and washed with cold PBS twice. Then the collected cells were fixed with 1mL PBS and 3mL cold 100% ethanol at 4°C overnight. After that, the cells were again harvested by centrifugation at 300×g for 10 min. The cells were washed with cold PBS and re-suspended in 450 μL PBS, and then treated with 50μL ribonuclease (RNase,10mg/mL) at 37°C for 15min. 500μL of propidium iodide (PI, 50μg/ml) was added to the samples. After the cells were incubated for 30 min at 4°C in the dark, the cell cycle distribution was measured using an BD FACSCalibur Flow cytometer (BD Biosciences, USA), and 10,000cells were counted for each sample. The percentage of cells in different phases of the cell cycle was analyzed by flow Jo (BD Biosciences, USA). The experiment was repeated three times.

[2] = OVCAR-3, 10μM, listed as EM-d-Rha

**Q.** Which IC50 (A549 cells; Homo sapiens, MTT at 72h, n=3, mean±S.E.M, read-out: IC50 for EM-d-Rha, A549) does the source give for `CC(=O)O[C@@H]1[C@@H](O[C@@H]2O[C@@H](C)[C@H](O)[C@@H](OC(C)=O)[C@H]2OC(C)=O)[C@H](C)O[C@@H](Oc2cc(O)c3c(c2)C(=O)c2cc(C)cc(O)c2C3=O)[C@@H]1OC(C)=O` [S-8, 3-(2”,3”-Di-O-acetyl-α-L-rhamnopyranosyl-(1→4)-2’,3’-di-O-acetyl-α-L-rhamnopyranosyl)-emodin] here?
**A.** Its IC50 is 1.75 ± 0.63 µM.

**Q.** And the IC50 (A549 cells; Homo sapiens, MTT, 72 hours, read-out: IC50 values, A549)?
**A.** Its IC50 is 2.6 µg/mL.

**Q.** And the inhibition at 0.1 µM (A549 cells; Homo sapiens, A549, 0.1μM, MTT 72h, read-out: The inhibition rate of EM-d-Rha)?
**A.** Its inhibition at 0.1 µM is 13.95 ± 0.02%.

**Q.** And the inhibition at 0.5 µM (A549 cells; Homo sapiens, A549, 0.5μM, MTT 72h, read-out: The inhibition rate of EM-d-Rha)?
**A.** Its inhibition at 0.5 µM is 27.3 ± 2.19%.

**Q.** And the inhibition at 2.5 µM (A549 cells; Homo sapiens, A549, 2.5μM, MTT 72h, read-out: The inhibition rate of EM-d-Rha)?
**A.** Its inhibition at 2.5 µM is 33.7 ± 1.46%.

**Q.** What about the inhibition at 12.5 µM (A549 cells; Homo sapiens, A549, 12.5μM, MTT 72h, read-out: The inhibition rate of EM-d-Rha) of the same compound?
**A.** Its inhibition at 12.5 µM is 63.5 ± 1.03%.

**Q.** And the inhibition at 62.5 µM (A549 cells; Homo sapiens, A549, 62.5μM, MTT 72h, read-out: The inhibition rate of EM-d-Rha)?
**A.** Its inhibition at 62.5 µM is 75.96 ± 0.58%.

**Q.** What about the “Decrease of IC50 compared to the IC50 of emodin, A549” value (A549 cells; from Table 1) of the same compound?
**A.** Its value is 7.52 fold.

**Q.** And the “Cytochrome C mRNA expression level relative to controls” value ([1]; HepG2, 0.70μM)?
**A.** The value was 1.009±0.475 fold.

**Q.** And the “Cytochrome C mRNA expression level relative to controls” value ([1]; HepG2, 1.40μM)?
**A.** Its value is 1.086±0.727 fold.

**Q.** And the “Cytochrome C mRNA expression level relative to controls” value ([1]; HepG2, 2.80μM, listed as EM-d-Rha)?
**A.** Its value is 3.258±2.402 fold.

**Q.** And the “Cytochrome C mRNA expression level relative to controls” value ([1]; HepG2, 5.60μM)?
**A.** The value was 5.625±4.950 fold.

**Q.** What about the Late apoptosis (OVCAR-3 cells; OVCAR-3, 2.5μM) of the same compound?
**A.** The Late apoptosis was 3.30±2.95%.

**Q.** And the Early apoptosis (OVCAR-3 cells; OVCAR-3, 2.5μM)?
**A.** The Early apoptosis was 70.60±23.06 %.

**Q.** And the Living cell (OVCAR-3 cells; OVCAR-3, 2.5μM)?
**A.** The Living cell was 25.82±20.14 %.

**Q.** What about the Late apoptosis (OVCAR-3 cells; OVCAR-3, 5μM) of the same compound?
**A.** Its Late apoptosis is 0.81±0.05 %.

**Q.** And the Early apoptosis (OVCAR-3 cells; OVCAR-3, 5μM)?
**A.** The Early apoptosis was 90.52±0.20 %.

**Q.** What about the Living cell (OVCAR-3 cells; OVCAR-3, 5μM) of the same compound?
**A.** Its Living cell is 8.60±0.19 %.

**Q.** And the Late apoptosis (OVCAR-3 cells; OVCAR-3, 10μM)?
**A.** Its Late apoptosis is 0.35±0.06 %.

**Q.** And the Early apoptosis (OVCAR-3 cells; [2])?
**A.** The Early apoptosis was 95.09% and 95.09±1.03 %.

**Q.** What about the Living cell (OVCAR-3 cells; [2]) of the same compound?
**A.** The Living cell was 4.53% and 4.53±0.99 %.

**Q.** What about the inhibition at 0.1 µM (MCF-7 cells; MCF-7, 0.1μM, MTT 72h, read-out: The inhibition rate of EM-d-Rha) of the same compound?
**A.** Its inhibition at 0.1 µM is 16.8 ± 1.4%.

**Q.** And the inhibition at 0.5 µM (MCF-7 cells; MCF-7, 0.5μM, MTT 72h, read-out: The inhibition rate of EM-d-Rha)?
**A.** Its inhibition at 0.5 µM is 20.1 ± 3.83%.

**Q.** What about the inhibition at 2.5 µM (MCF-7 cells; MCF-7, 2.5μM, MTT 72h, read-out: The inhibition rate of EM-d-Rha) of the same compound?
**A.** Its inhibition at 2.5 µM is 41.4 ± 6.53%.

**Q.** And the inhibition at 12.5 µM (MCF-7 cells; MCF-7, 12.5μM, MTT 72h, read-out: The inhibition rate of EM-d-Rha)?
**A.** Its inhibition at 12.5 µM is 62.7 ± 6.81%.

**Q.** What about the inhibition at 62.5 µM (MCF-7 cells; MCF-7, 62.5μM, MTT 72h, read-out: The inhibition rate of EM-d-Rha) of the same compound?
**A.** Its inhibition at 62.5 µM is 77.1 ± 5.1%.

**Q.** What about the IC50 (MCF-7 cells; MTT at 72h, n=3, mean±S.E.M, read-out: IC50 for EM-d-Rha, MCF-7) of the same compound?
**A.** Its IC50 is 8.56 ± 1.04 µM.

**Q.** And the “Percentage of cell cycle distribution, G2/M” value (shortened to “Percentage … G2/M”) (HepG2 cells; HepG2, 2.5μM)?
**A.** The value was 7.01±1.73%.

**Q.** And the “Percentage of cell cycle distribution, S” value (HepG2 cells; HepG2, 2.5μM, control 23.19±2.18%, listed as EM-d-Rha)?
**A.** The value was 28.59% and 28.59±3.75%.

**Q.** And the “Percentage of cell cycle distribution, G0/G1” value (shortened to “Percentage … G0/G1”) (HepG2 cells; HepG2, 2.5μM)?
**A.** Its value is 61.37±2.16%.

**Q.** And the “Percentage … G2/M” value (HepG2 cells; HepG2, 5.0μM)?
**A.** Its value is 10.31±3.08%.

**Q.** What about the “Percentage … G0/G1” value (HepG2 cells; HepG2, 5.0μM) of the same compound?
**A.** The value was 51.03±8.84%.

**Q.** And the “Percentage … G2/M” value (HepG2 cells; HepG2, 10.0μM)?
**A.** Its value is 7.96±2.07%.

**Q.** And the “Percentage … G0/G1” value (HepG2 cells; HepG2, 10.0μM)?
**A.** Its value is 52.35±9.37%.
